From US4816487A, “1-(2-hydroxyaryl)-alkane-1-on-oximes-procedure of preparation and use in pharmaceuticals” (Humboldt-Universitaet zu Berlin, priority 1985, dated 1989)

What was measured:
[1] = biological target: T1, lipoxygenase from rabbit reticulocytes (Oryctolagus cuniculus, UniProt P12530); assay: inhibition of activity of lipoxygenase from rabbit reticulocytes; format: biochemical; details: for inhibition of rabbit reticulocyte lipoxygenase by known lipoxygenase inhibitors: concentration not given; for IC50: Table 3, in parentheses, read-out: I50-value, lipoxygenase from reticulocytes; for inhibition at 1000 µM: ultimate concentration 1.0 mM; for effect on reticulocyte lipoxygenase: ultimate concentration 1 mM
T1 construct: Lipoxygenase from rabbit reticulocytes was obtained in electrophoretically and immunologically pure form; from tissue; host or cells: rabbit reticulocytes
T1 sequence (P12530 1-663): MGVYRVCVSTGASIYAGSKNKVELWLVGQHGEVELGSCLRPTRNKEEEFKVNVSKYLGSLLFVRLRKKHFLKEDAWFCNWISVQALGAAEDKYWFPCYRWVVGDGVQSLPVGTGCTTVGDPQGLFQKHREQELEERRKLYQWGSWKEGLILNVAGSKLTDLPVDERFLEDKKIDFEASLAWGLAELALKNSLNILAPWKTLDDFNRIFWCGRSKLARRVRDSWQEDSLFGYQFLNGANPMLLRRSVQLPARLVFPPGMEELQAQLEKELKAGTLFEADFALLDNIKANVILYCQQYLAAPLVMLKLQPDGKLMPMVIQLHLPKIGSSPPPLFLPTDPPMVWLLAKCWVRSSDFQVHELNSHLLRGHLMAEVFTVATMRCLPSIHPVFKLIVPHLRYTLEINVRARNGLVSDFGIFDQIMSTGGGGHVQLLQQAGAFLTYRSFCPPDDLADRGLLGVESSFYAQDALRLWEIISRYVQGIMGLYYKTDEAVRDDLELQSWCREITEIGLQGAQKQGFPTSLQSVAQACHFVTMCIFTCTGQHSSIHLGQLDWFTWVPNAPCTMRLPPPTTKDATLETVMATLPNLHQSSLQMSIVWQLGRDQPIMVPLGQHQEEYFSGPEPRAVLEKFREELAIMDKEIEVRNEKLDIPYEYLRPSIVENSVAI
Procedure: (§1) Persuasive evidence to inhibition of lipoxygenase was produced by a suitable animal lipoxygenase which had been isolated from rabbit reticulocytes, using a method by Rapoport and coworkers /S. M. Rapoport et al., Eur. J. Biochem. 96, 545 (1979)/. A final concentration of 1 mM of most of the compounds, according to this invention, produced inhibition of 90 percent or more (cf. Example 20). Significant inhibition was even recordable from a final concentration of 0.1 mM of some of the compounds, according to this invention. Substance concentrations were varied to determine the titration curves of inhibition and from these the half-inhibition concentrations (I50 -values). A half-inhibition concentration of 7 μM was established for 5-methyl-2-hydroxy-laurophenone-oxime, an oxime of high anti-asthmatic effectiveness.
Inhibition of activity of lipoxygenase from rabbit reticulocytes:
(§2) Lipoxygenase from rabbit reticulocytes was obtained in electrophoretically and immunologically pure form by means of the method described in the literature /S. M. Rapoport et al., Eur. J. Biochem. 96, 545 (1979)/. Lipoxygenase activity was determined at 25° C. by amperometric measurement of oxygen consumption by means of a Clark electrode in the following system: 0.1M potassium phosphate, pH 7.4, with 0.2-per-cent sodium cholate and 0.53 mM linoleic acid. The enzyme concentration was […] in the sample for measurement. The substances submitted for testing were dissolved in methyl glycol (fresh distillation in vacuum) and pre-incubated ten minutes with the enzyme at measurement temperature and in the absence of sodium cholate and linoleic acid. […] No remarkable inhibition occurred to control samples under these conditions. Enzyme reaction was started by addition of sodium cholate and linoleic acid. The titration curve of inhibition and, consequently, the concentrations required for inhibition by the order of 50 per cent were determined by variation of active substance concentrations. For comparison, the compounds were tested also on commercial lipoxygenase-1 from soybean.

[2] = biological target: T2, lipoxygenase-1 from soybean (Glycine max, UniProt P08170); assay: inhibition of soybean lipoxygenase-1; format: biochemical; details: read-out: Inhibition (percent) of lipoxygenase from soybean; for inhibition at 1000 µM: ultimate concentration 1.0 mM
T2 construct: purchased
T2 sequence (P08170 1-839): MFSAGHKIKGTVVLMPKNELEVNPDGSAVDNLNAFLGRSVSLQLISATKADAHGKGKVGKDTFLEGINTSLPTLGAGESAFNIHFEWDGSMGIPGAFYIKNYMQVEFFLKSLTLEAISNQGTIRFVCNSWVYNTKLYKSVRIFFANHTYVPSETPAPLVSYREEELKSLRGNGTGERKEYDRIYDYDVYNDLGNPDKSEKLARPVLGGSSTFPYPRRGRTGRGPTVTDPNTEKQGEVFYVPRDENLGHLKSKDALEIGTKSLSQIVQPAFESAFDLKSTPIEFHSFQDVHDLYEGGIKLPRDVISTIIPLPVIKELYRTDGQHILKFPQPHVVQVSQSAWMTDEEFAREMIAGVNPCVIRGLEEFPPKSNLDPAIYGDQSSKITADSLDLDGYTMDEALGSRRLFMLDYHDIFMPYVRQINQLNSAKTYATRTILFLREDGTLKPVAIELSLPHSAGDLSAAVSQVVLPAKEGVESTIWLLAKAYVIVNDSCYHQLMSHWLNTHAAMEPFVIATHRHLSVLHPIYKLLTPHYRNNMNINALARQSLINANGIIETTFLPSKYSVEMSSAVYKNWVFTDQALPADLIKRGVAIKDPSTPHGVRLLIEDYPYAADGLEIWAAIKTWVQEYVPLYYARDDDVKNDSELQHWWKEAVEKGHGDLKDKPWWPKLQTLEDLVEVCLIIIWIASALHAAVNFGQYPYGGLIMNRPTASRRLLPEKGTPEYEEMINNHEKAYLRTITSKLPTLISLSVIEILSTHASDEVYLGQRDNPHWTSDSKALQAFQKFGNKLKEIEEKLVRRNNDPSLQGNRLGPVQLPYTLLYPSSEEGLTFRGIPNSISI
Procedure: as §1, §2

thrombocyte aggregation = assay: inhibition of thrombocyte aggregation induced by arachidonic acid or platelet activation factor; format: cell-based, man
Procedure: Since inhibition of lipoxygenase was identified as molecular point of attack of these new medicaments, studies were conducted also into their action upon thrombocyte aggregation. The substantive role played by the lipoxygenase route in the irreversibility of thrombocyte aggregation is well established at present/C. E. Dutilh et al., Prostaglandins and Medicine 6, 111 (1981)/. A key role in the pathogenesis of thrombotic diseases is attributed to irreversibility of thrombocyte aggregation. […] In the experiments conducted for this invention, thrombocyte aggregation was triggered off either by arachidonic acid or by the platelet activation factor (PAF-acether).
Inhibition of thrombocyte aggregation induced by arachidonic acid or the platelet activation factor:
The compounds were tested for antithrombotic and thrombolytic activity in vitro on the authentic cell system of man. High-thrombocyte plasma was obtained from the blood of clinically healthy donors by 1000×g centrifugation. Thrombocyte aggregation was measured by means of an aggregometer on the basis of diffuse scatter of light or absorption of light by resulting cell aggregates. The high-thrombocyte plasma was pre-incubated with the active substances at 37° C. for three minutes. Thrombocyte aggregation was then triggered off by alternative addition of 0.8 mM of arachidonic acid or 1 μM of platelet activation factor (PAF acether). […]

sensitised guinea pig = details: cited: C. Armour and D. M. Temple, Agents Action 12, 285 (1982); cited from earlier work
[3] = read-out: Inhibition (percent) of lipoxygenase from reticulocytes

Question: Which “inhibition of rabbit reticulocyte lipoxygenase by known lipoxygenase inhibitors” value (shortened to “inhibition … by known lipoxygenase inhibitors”) [1] does the source give for `COc1ccc(O)c(C(C)(C)C)c1` [3-tert.-butyl-4-hydroxy-anisol, reference compound] here?
Answer: inhibited with high effectiveness

Question: Which results are given for `CCCCCCCCCCCCCCCCOc1ccc(C(C)=NO)c(O)c1` [4-hexadecyloxy-2-hydroxy-acetophenone-oxime]?
Answer: IC50 [1]: 500 µM; inhibition at 500 µM ([1]; ultimate concentration 0.5 mM, read-out: Inhibition (percent) of lipoxygenase from reticulocytes): 75%; inhibition at 500 µM ([2]; ultimate concentration 0.5 mM): 38%

Question: Which results are given for `CCCCCCOc1ccc(C(C)=NO)c(O)c1` [4-hexyloxy-2-hydroxy-acetophenone-oxime]?
Answer: IC50 [1]: 260 µM; inhibition at 1000 µM [1, 3]: 100%; inhibition at 1000 µM [2]: 68%; retardation of thrombocyte aggregation (thrombocyte aggregation; 44 μM): retarded aggregation by about two minutes; inhibition of thrombocyte aggregation (thrombocyte aggregation; 60 μM): total inhibition

Question: With `O=[N+]([O-])c1ccc(O)c(O)c1` [4-nitrocatechol, reference compound] as the molecule, how does the “inhibition … by known lipoxygenase inhibitors” value [1] read?
Answer: inhibited with high effectiveness

Question: For `CCCCCC#CCC#CCC#CCC#CCCCC(=O)O` [5,8,11,14-eicosa-tetraynoic acid, reference compound], which “inhibition … by known lipoxygenase inhibitors” value [1] is on record?
Answer: inhibited with high effectiveness

Question: Which “inhibition … by known lipoxygenase inhibitors” value [1] does the source give for `CCCCCCCCC#CCC#CCC#CCCCC(=O)O` [5,8,11-eicosatriynoic acid, reference compound] here?
Answer: inhibited with high effectiveness

Question: Which IC50 [1] does the source give for `CCCCCC(=NO)c1cc(Cl)ccc1O` [5-chloro-2-hydroxy-caprophenone-oxime] here?
Answer: 300 µM

Question: What about the inhibition at 1000 µM [1, 3] of the same molecule?
Answer: 90%

Question: And the inhibition at 1000 µM [2]?
Answer: 24%

Question: For `O=C(O)c1cc(=O)c2c(OCC(O)COc3cccc4oc(C(=O)O)cc(=O)c34)cccc2o1` [disodium-cromoglycate, reference compound], which “effect on reticulocyte lipoxygenase” value [1] is on record?
Answer: failed to have an effect

Question: What about the “comparable anti-asthmatic, anti-allergic, and anti-anaphylactic effects on a whole-animal model” value (sensitised guinea pig) of the same molecule?
Answer: have not even been known

Question: For `CN1CCC(=C2c3ccccc3CC(=O)c3sccc32)CC1` [ketotifen, reference compound], which “effect on reticulocyte lipoxygenase” value [1] is on record?
Answer: failed to have an effect

Question: And the “comparable anti-asthmatic, anti-allergic, and anti-anaphylactic effects on a whole-animal model” value (sensitised guinea pig)?
Answer: have not even been known

Question: With `CC(Cc1ccc(O)c(O)c1)C(C)Cc1ccc(O)c(O)c1` (centres unmarked) [nordihydroguaiaretic acid, reference compound] as the molecule, how does the “inhibition … by known lipoxygenase inhibitors” value [1] read?
Answer: inhibited with high effectiveness
